The values below come from patent US5486597A, “Tetrapeptide derivatives and analogues” (James Black Foundation Limited, priority 1990, dated 1996).

Non-standard residues stand in square brackets, D forms with d. Residues, ends and D or L forms follow the SMILES beside them. *: point of attachment. Trp(1-Me) = Cn1cc(C[C@H](N)C(=O)O)c2ccccc21; Phe(4-Cl) = N[C@@H](Cc1ccc(Cl)cc1)C(=O)O; αMeW = C[C@](N)(Cc1c[nH]c2ccccc12)C(=O)O; 2Nal = N[C@@H](Cc1ccc2ccccc2c1)C(=O)O; Fmoc = O=C(OCC1c2ccccc2-c2ccccc21)*; Adoc = O=C(OC12CC3CC(CC(C3)C1)C2)*; Boc = CC(C)(C)OC(=O)*

The target in one assay is T1, gastrin receptor (Mus musculus, UniProt P56481).
T1 construct: assayed for gastrin activity using the mouse stomach assay; from tissue; host or cells: isolated mouse stomach
T1 sequence (P56481 1-453): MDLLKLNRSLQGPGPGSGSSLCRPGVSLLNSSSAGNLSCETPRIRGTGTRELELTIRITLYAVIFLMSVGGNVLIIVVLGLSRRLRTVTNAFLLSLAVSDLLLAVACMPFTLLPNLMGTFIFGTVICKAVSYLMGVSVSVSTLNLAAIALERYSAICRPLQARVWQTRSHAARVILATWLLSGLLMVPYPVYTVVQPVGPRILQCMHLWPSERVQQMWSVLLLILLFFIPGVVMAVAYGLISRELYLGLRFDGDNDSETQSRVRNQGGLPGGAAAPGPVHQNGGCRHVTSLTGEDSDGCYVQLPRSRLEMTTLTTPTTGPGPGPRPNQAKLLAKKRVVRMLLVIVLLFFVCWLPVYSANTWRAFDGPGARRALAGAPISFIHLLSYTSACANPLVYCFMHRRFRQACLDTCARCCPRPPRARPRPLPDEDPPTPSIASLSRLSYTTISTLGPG
The experiment in a line: mouse stomach assay for gastrin activity (isolated stomach, acid secretion). To be noted: for Acid seretion at 10^-5 M test compound, relative to pentagastrin (%): mouse stomach, NS = not significant. Format: cell-based. Here is the method:
The compounds were assayed for gastrin activity using the mouse stomach assay as described by Black, J. W. and Shankley, N. P., Br. J. Pharmacol., 86, 571-579, (1985), and also in the guinea-pig fundus assay, as follows: […]

In assay [1] the target is T2, cholecystokinin receptors (Cavia porcellus, UniProt Q63931).
T2 construct: Isolated, strip preparations were prepared from gall-bladders removed from male Dunkin-Hartley guinea-pigs; from tissue; host or cells: guinea-pig gall-bladder strips
T2 sequence (Q63931 1-430): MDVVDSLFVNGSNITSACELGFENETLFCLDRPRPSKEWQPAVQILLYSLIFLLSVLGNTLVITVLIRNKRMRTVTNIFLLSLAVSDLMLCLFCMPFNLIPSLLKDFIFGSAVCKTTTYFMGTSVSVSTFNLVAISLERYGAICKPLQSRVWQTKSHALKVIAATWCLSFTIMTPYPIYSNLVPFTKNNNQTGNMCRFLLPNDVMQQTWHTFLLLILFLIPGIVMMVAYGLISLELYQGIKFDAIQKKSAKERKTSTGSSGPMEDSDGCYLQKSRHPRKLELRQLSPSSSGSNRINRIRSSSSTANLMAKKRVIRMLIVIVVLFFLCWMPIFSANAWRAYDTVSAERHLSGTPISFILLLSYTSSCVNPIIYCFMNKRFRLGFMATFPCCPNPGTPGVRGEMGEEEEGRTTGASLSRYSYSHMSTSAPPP
The experiment in a line: CCK-antagonist activity in isolated guinea-pig gall-bladder strip preparations. To be noted: guinea-pig gall-bladder strips; CCK-8 as agonist; test compound incubated for 60 minutes; standard errors less than 5%. Format: cell-based. Here is the method: The compounds of the invention were also assayed for CCK-antagonist activity as follows:
Isolated, strip preparations were prepared from gall-bladders removed from male Dunkin-Hartley guinea-pigs (250-500 g body weight) according to the method of La Morte, W. W., et al., J.P.E.T., 217, (3), 638-644 (1981).
The complete gall-bladder is removed and opened along the longitudinal axis. Strips measuring 3 mm in the longitudinal axis and 1 mm in the transverse axis are cut and then tied with cotton to stainless steel wires. The preparation is connected to a GRASS FTO3 isometric transducer under an initial loading tension of 1 g and is immersed in 20 mls of Krebs solution maintained at 37° C. and gassed with 95% O2 /5% CO2. The Krebs solution is as detailed above in connection with the fundus assay, except that the Ca^2+ concentration is decreased to 0.5 mM. After 30 mins the preparation is washed. Drug addition begins after an initial 90 min stabilisation period. Responses are measured as changes in tension from that immediately prior to any drug addition. Single cumulative agonist concentration-effect curves, using CCK-8 as agonist, are obtained on each preparation in the absence and presence of test compound which has been incubated for 60 minutes. The antagonist activity of the test compound is estimated and expressed as the negative logarithm (base 10) of the equilibrium dissociation constants (pK8) using the modifications of standard competitive analysis described by Black et al., Br. J. Pharmacol.,86,571-579, (1985) and Shankley et al., Br. J. Pharmacol.,94,264-274 (1988).

Setting [2] is: isolated mouse stomach assay, gastrin antagonism, standard errors less than 5%.

Compound `CNC(=O)[C@H](Cc1ccccc1)NC(=O)[C@H](CC(=O)O)NC(=O)[C@H](Cc1ccc2ccccc2c1)NC(=O)[C@H](Cc1c[nH]c2ccccc12)NC(=O)OC(C)(C)C` [Example 5, N-t-Butyloxycarbonyl-L-tryptophyl-L-3-(2-naphthyl)alanyl-L-aspartyl-L-phenylalanyl-(N-methyl)amide] (Boc-W[2Nal]DF-NHMe) yielded a pKB mouse stomach on gastrin receptor (setting [2]) of 5.6. For the same compound, the “Acid seretion at 10^-5 M test compound, relative to pentagastrin (%)” value (“Acid seretion … relative to pentagastrin (%)” below) at gastrin receptor is 23%. In assay [1], this compound yielded a negative-log KB (pKB) of 5.4. The compound `CC(C)(C)OC(=O)N[C@@H](Cc1c[nH]c2ccccc12)C(=O)N[C@@H](Cc1ccc2ccccc2c1)C(=O)N[C@@H](CC(=O)O)C(=O)N[C@@H](Cc1ccc(Cl)cc1)C(N)=O` [Example 11, N-t-Butyloxycarbonyl-L-tryptophyl-L-3-(2-naphthyl)alanyl-L-aspartyl-L-(4-chlorophenylalanin)amide] (Boc-W[2Nal]D[Phe(4-Cl)]-NH2) had a pKB mouse stomach on gastrin receptor (setting [2]) of 6.6. The “Acid seretion … relative to pentagastrin (%)” value at gastrin receptor is given as 60%. The same compound registered a pKB in assay [1] of 5.9.

As for `NC(=O)[C@H](Cc1ccccc1)NC(=O)[C@H](CC(=O)O)NC(=O)[C@H](Cc1ccc2ccccc2c1)NC(=O)[C@H](Cc1c[nH]c2ccccc12)NC(=O)OC12CC3CC(CC(C3)C1)C2` [Example 13, N-1-Adamantyloxycarbonyl-L-tryptophyl-L-3-(2-naphthyl)alanyl-L-aspartyl-L-phenylalaninamide] (Adoc-W[2Nal]DF-NH2), the Kb in assay [1] was 1.26 µM.

For `COc1ccc(CCNC(=O)[C@H](CC(=O)O)NC(=O)[C@H](Cc2ccc3ccccc3c2)NC(=O)[C@H](Cc2c[nH]c3ccccc23)NC(=O)OC23CC4CC(CC(C4)C2)C3)cc1` [Example 14, N-1-Adamantyloxycarbonyl-L-tryptophyl-L-3-(2-naphthyl)alanyl-L-aspartyl-4-methoxyphenethylamide], in assay [1], the pKB was found to be 6.0. Take `NC(=O)[C@H](Cc1ccccc1)NC(=O)[C@H](CC(=O)O)NC(=O)[C@H](Cc1ccc2ccccc2c1)NC(=O)[C@H](Cc1c[nH]c2ccccc12)NC(=O)OCC1c2ccccc2-c2ccccc21` [Example 16, N-9-Fluorenylmethoxycarbonyl-L-tryptophyl-L-3-(2-naphthyl)alanyl-L-aspartyl-L-phenylalaninamide] (Fmoc-W[2Nal]DF-NH2): the Kb on gastrin receptor (isolated mouse stomach assay, gastrin antagonism, standard errors less than 5%, read-out: pKB mouse stomach (converted)) is 2 µM; in assay [1], 2.51 µM. The “Acid seretion … relative to pentagastrin (%)” value at gastrin receptor is given as 67%. `CC(C)(C)OC(=O)N[C@@](C)(Cc1c[nH]c2ccccc12)C(=O)N[C@@H](Cc1ccc2ccccc2c1)C(=O)N[C@@H](CC(=O)O)C(=O)N[C@@H](Cc1ccccc1)C(N)=O` [Example 17, N-t-Butyloxycarbonyl-a-methyl-tryptophyl-L-3-(2-naphthyl)alanyl-L-aspartyl-L-phenylalaninamide] (Boc-[αMeW][2Nal]DF-NH2) displayed a pKB mouse stomach at gastrin receptor (setting [2]) of 5.9. Besides, the “Acid seretion … relative to pentagastrin (%)” value on gastrin receptor is 44%. The compound also had a pKB in assay [1] of 5.5.

Take `NC(=O)[C@H](Cc1ccccc1)NC(=O)[C@H](CC(=O)O)NC(=O)[C@H](Cc1ccc2ccccc2c1)NC(=O)Cc1c[nH]c2ccccc12` [Example 20, Indole-3-acetamido-L-3-(2-naphthyl)alanyl-L-aspartyl-L-phenylalaninamide]: the pKB mouse stomach on gastrin receptor (setting [2]) was 6.2. The “Acid seretion … relative to pentagastrin (%)” value on gastrin receptor amounted to 33%. In assay [1], this compound displayed a pKB of 6.7.

For `NC(=O)[C@H](Cc1ccccc1)NC(=O)[C@H](CC(=O)O)NC(=O)[C@H](Cc1ccc2ccccc2c1)NC(=O)CCc1c[nH]c2ccccc12` [Example 21, Indole-3-propionamido-L-3-(2-naphthyl)alanyl-L-aspartyl-L-phenylalaninamide], the pKB in assay [1] is 6.2. The compound `CC(C)(C)OC(=O)N[C@H](Cc1c[nH]c2ccccc12)C(=O)N[C@@H](Cc1ccc2ccccc2c1)C(=O)N[C@@H](CC(=O)O)C(=O)N[C@@H](Cc1ccccc1)C(N)=O` [Example 22, N-t-Butyloxycarbonyl-D-tryptophyl-L-3-(2-naphthyl)alanyl-L-aspartyl-L-phenylalaninamide] (Boc-[dW][2Nal]DF-NH2) had a Kb in assay [1] of 0.631 µM.

Turning to `CC(C)(C)OC(=O)N[C@@H](Cc1c[nH]c2ccccc12)C(=O)N[C@@H](Cc1ccc2ccccc2c1)C(=O)N[C@@H](CC(=O)O)C(=O)NCCc1ccc(C(F)(F)F)cc1` [Example 28, N-t-Butyloxycarbonyl-L-tryptophyl-L-3-(2-naphthyl)alanyl-L-aspartyl-4-trifluoromethylphenethylamide], the pKB in assay [1] is on record as 6.4. Compound `CC(C)(C)OC(=O)N[C@@H](Cc1c[nH]c2ccccc12)C(=O)N[C@@H](Cc1ccc2ccccc2c1)C(=O)N[C@@H](CC(=O)O)C(=O)NCC12CC3CC(CC(C3)C1)C2` [Example 35, N-t-Butyloxycarbonyl-L-tryptophyl-L-3-(2-naphthyl)alanyl-L-aspartyl-1-adamantylmethylamide] returned a pKB in assay [1] of 5.8. Regarding `CC(C)(C)OC(=O)N[C@@H](Cc1c[nH]c2ccccc12)C(=O)N[C@@H](Cc1ccc2ccccc2c1)C(=O)N[C@@H](CC(=O)O)C(=O)NCCc1ccc2c(c1)CCCC2` [Example 43, N-t-Butyloxycarbonyl-L-tryptophyl-L-3-(2-naphthyl)alanyl-L-aspartyl-2-(5,6,7,8-tetrahydronaphthyl)ethylamide], in assay [1], the pKB is reported as 6.5. In the case of `Cn1cc(C[C@H](NC(=O)OC(C)(C)C)C(=O)N[C@@H](Cc2ccc3ccccc3c2)C(=O)N[C@@H](CC(=O)O)C(=O)N[C@@H](Cc2ccccc2)C(N)=O)c2ccccc21` [Example 45, N-t-Butyloxycarbonyl-L-N^in-methyltryptophyl-L-3-(2-naphthyl)alanyl-L-aspartyl-L-phenylalaninamide] (Boc-[Trp(1-Me)][2Nal]DF-NH2), the negative-log KB (pKB) in assay [1] was 6.1.

In the case of `CC(C)(C)OC(=O)N[C@@H](Cc1c[nH]c2ccccc12)C(=O)N[C@@H](Cc1ccc2ccccc2c1)C(=O)N[C@@H](CC(=O)O)C(=O)NCCc1cccc(C(F)(F)F)c1` [Example 50, N-t-Butyloxycarbonyl-L-tryptophyl-L-3-(2-naphthyl)alanyl-L-aspartyl-3-trifluoromethylphenethylamide], the negative logarithm of the KB (pKB) in assay [1] is listed as 6.1.

In turn, `CC(C)(C)OC(=O)N[C@@H](Cc1c[nH]c2ccccc12)C(=O)N[C@@H](Cc1ccc2ccccc2c1)C(=O)N[C@@H](CC(=O)O)C(=O)NC1Cc2ccccc2C1` [Example 53, N-t-Butyloxycarbonyl-L-tryptophyl-L-3-(2-naphthyl)alanyl-L-aspartyl-2-indanylamide] showed a pKB in assay [1] of 6.6. As to `COc1cc(OC)c(CCNC(=O)[C@H](CC(=O)O)NC(=O)[C@H](Cc2ccc3ccccc3c2)NC(=O)[C@H](Cc2c[nH]c3ccccc23)NC(=O)OC(C)(C)C)c(OC)c1` [Example 55, N-t-Butyloxycarbonyl-L-tryptophyl-L-3-(2-naphthyl)alanyl-L-aspartyl-2,4,6-trimethoxyphenethylamide], in assay [1], the negative logarithm of the KB (pKB) was determined as 6.4.

In the case of “N-t-Butyloxycarbonyl-L-tryptophyl-L-3-(2-naphthyl)alanyl-L-aspartyl-2,4-dichlorophenethylamide [Example 37]”, in assay [1], the negative-log KB (pKB) stood at 6.4.
